The values that follow come from patent EP2876156A1 (COMMISSARIAT A L'ENERGIE ATOMIQUE ET AUX ENERGIES …, priority 2013, dated 2015).

Common to all, as to format: biochemical
Conditions in all cases: enzyme 0.08 mg/mL, molar ratio α-ketoglutarate/substrate 15/10, Hepes buffer 50 mM pH 7,5, Mohr's salt 1mM, without sodium ascorbate, room temperature, three hours

One test concerns the target T1, ENZ1 SEQ ID N°1 (Catenulispora acidiphila, UniProt C7QJ42).
T1 construct: His6 (hexahistidine, inserted after the initial methionine) (N); made in house; host or cells: E. coli BL21(DE3) plysE
T1 sequence (C7QJ42 1-358): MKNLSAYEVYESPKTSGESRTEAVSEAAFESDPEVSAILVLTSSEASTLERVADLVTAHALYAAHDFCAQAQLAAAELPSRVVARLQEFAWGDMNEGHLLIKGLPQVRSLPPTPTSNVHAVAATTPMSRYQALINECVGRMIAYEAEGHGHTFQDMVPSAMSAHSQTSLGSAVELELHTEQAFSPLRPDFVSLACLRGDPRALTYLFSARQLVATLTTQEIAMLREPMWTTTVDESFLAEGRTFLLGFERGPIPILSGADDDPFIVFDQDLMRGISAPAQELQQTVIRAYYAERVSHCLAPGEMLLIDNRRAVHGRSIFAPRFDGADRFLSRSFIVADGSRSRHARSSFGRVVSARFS
Briefly: Substrate selectivity screening of hydroxylase (conversion by HPLC after Fmoc-Cl derivatization). How it is done: (§1) Enzymatic reaction medium (0.2 µmole, leq.), borate buffer 0,2M pH 7.7 (80 µL) and Fmoc-Cl solution7.5 mM in acetone (100 µL, 0.75 µmole, 3.75 eq) were hand shaked in a closed 1.50 mL eppendorf for one minute. The aqueous layer was extracted with petroleum ether (3*1 mL) to eliminate excess of Fmoc-Cl. 70 µL of the aqueous phase were withdrawn, diluted with 70 µL of acetonitrile and injected into the HPLC. For substrates with two amine functions, 100 µL of Fmoc-Cl solution 15 mM were used.
(§2) Conditions for HPLC analysis: Atlantis® T3 (3 µm 4.5*150 mm) at 35°C with the gradient 50-86% eluent B (MeCN + 0.1% TFA) and eluent A (H2O + 0.1% TFA) in 20 min at 1 mL/min.
(§3) Enzymes (0.08 mg/mL) were screened against substrates (molar ratio α-ketoglutarate/substrate 15/10) in Hepes buffer 50 mM pH 7,5, with Mohr's salt at 1mM and without sodium ascorbate, at room temperature for three hours. The potential conversions of the substrates were determined by HPLC after Fmoc-Cl derivatization as section III here above.

The next test deals with T2, ENZ4 SEQ ID NO:4 (Catenulispora acidiphila, UniProt C7Q942).
T2 construct: His6 (hexahistidine, inserted after the initial methionine) (N); made in house; host or cells: E. coli BL21(DE3) plysE
T2 sequence (C7Q942 1-343): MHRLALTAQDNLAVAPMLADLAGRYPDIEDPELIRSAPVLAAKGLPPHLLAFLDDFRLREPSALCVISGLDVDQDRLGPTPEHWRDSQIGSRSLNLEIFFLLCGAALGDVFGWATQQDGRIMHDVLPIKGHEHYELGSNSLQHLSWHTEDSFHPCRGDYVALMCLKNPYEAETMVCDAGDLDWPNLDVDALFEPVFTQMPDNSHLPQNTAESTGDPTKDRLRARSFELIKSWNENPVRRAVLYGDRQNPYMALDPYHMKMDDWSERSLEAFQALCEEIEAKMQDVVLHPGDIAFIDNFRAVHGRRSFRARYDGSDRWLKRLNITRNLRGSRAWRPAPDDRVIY
Described as above. On the procedure: as §1, §2, §3

The target in a further test is T3, ENZ2 SEQ ID NO:2 (Flavobacterium johnsoniae, UniProt A5FF23).
T3 construct: His6 (hexahistidine, inserted after the initial methionine) (N); made in house; host or cells: E. coli BL21(DE3) plysE
T3 sequence (A5FF23 1-370): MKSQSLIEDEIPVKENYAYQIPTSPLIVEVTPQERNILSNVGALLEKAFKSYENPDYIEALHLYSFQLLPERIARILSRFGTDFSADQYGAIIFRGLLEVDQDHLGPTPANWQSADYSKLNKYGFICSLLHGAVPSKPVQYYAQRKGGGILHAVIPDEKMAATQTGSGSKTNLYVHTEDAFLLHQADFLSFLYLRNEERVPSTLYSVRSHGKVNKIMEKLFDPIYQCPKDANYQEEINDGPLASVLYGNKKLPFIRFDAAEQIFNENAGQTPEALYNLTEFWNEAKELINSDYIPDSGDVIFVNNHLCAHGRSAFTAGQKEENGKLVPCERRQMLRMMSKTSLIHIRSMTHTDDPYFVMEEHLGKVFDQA
How it is done: as §1, §2, §3

In a further test the target is T4, ENZ3 SEQ ID NO:3 (Chitinophaga pinensis, UniProt C7PLM6).
T4 construct: His6 (hexahistidine, inserted after the initial methionine) (N); made in house; host or cells: E. coli BL21(DE3) plysE
T4 sequence (C7PLM6 1-382): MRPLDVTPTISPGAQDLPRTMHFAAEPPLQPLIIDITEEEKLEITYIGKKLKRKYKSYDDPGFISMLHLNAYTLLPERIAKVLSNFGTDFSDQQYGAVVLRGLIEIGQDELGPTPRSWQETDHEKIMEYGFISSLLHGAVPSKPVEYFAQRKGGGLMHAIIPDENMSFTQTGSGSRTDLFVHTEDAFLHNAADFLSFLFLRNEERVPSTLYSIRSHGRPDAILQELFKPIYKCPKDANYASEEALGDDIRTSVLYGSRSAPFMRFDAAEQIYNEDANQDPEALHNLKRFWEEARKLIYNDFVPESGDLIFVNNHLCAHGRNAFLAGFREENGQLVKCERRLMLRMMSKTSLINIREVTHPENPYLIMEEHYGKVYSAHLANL
On the procedure: as §1, §2, §3

Regarding `NCCCCCN` [Cadaverine], the “potential conversions of the substrates, ENZ1 SEQ ID N°1” value (“potential conversions … ENZ1 SEQ ID N°1” for short) at ENZ1 SEQ ID N°1 was “negative”. For the same molecule, the “potential conversions of the substrates, ENZ4 SEQ ID NO:4” value at ENZ4 SEQ ID NO:4 is recorded as “negative”. In addition, at ENZ2 SEQ ID NO:2, the “potential conversions of the substrates, ENZ2 SEQ ID NO:2” value was “negative”. In addition, the “potential conversions of the substrates, ENZ3 SEQ ID NO:3” value on ENZ3 SEQ ID NO:3 is on record as “negative”.
`C[N+](C)(C)CCCC[C@H](N)C(=O)O` [Nε-Me3-L-lysine]: at ENZ1 SEQ ID N°1, the “potential conversions … ENZ1 SEQ ID N°1” value is reported as “negative”. For the same molecule, on ENZ4 SEQ ID NO:4, the “potential conversions of the substrates, ENZ4 SEQ ID NO:4” value is on record as “negative”. The “potential conversions of the substrates, ENZ2 SEQ ID NO:2” value on ENZ2 SEQ ID NO:2 was “negative”. Moreover, the “potential conversions of the substrates, ENZ3 SEQ ID NO:3” value at ENZ3 SEQ ID NO:3 is reported as “negative”.
For the molecule `NCCSC[C@H](N)C(=O)O` [Thia-L-lysine], the “potential conversions … ENZ1 SEQ ID N°1” value on ENZ1 SEQ ID N°1 is on record as “negative”. In addition, the “potential conversions of the substrates, ENZ4 SEQ ID NO:4” value on ENZ4 SEQ ID NO:4 is listed as “negative”. Also, the “potential conversions of the substrates, ENZ2 SEQ ID NO:2” value at ENZ2 SEQ ID NO:2 is on record as “positive”. Also, on ENZ3 SEQ ID NO:3, the “potential conversions of the substrates, ENZ3 SEQ ID NO:3” value is “positive”.
`NCCC[C@H](N)CC(=O)O` [β-L-lysine]: on ENZ1 SEQ ID N°1, the “potential conversions … ENZ1 SEQ ID N°1” value is recorded as “negative”. The “potential conversions of the substrates, ENZ4 SEQ ID NO:4” value at ENZ4 SEQ ID NO:4 is reported as “negative”. Also, the “potential conversions of the substrates, ENZ2 SEQ ID NO:2” value on ENZ2 SEQ ID NO:2 is “negative”. Further, on ENZ3 SEQ ID NO:3, the “potential conversions of the substrates, ENZ3 SEQ ID NO:3” value is “negative”.
Take `COC(=O)[C@@H](N)CCCCN` [L-lysine methyl ester]: the “potential conversions … ENZ1 SEQ ID N°1” value on ENZ1 SEQ ID N°1 was “negative”. The “potential conversions of the substrates, ENZ4 SEQ ID NO:4” value on ENZ4 SEQ ID NO:4 was “negative”. Also, on ENZ2 SEQ ID NO:2, the “potential conversions of the substrates, ENZ2 SEQ ID NO:2” value was “negative”. Further, the “potential conversions of the substrates, ENZ3 SEQ ID NO:3” value on ENZ3 SEQ ID NO:3 is on record as “negative”.
For the molecule `NCCCC[C@@H](N)C(=O)O` [D-lysine], the “potential conversions … ENZ1 SEQ ID N°1” value at ENZ1 SEQ ID N°1 is given as “negative”. Besides, the “potential conversions of the substrates, ENZ4 SEQ ID NO:4” value at ENZ4 SEQ ID NO:4 was “negative”. Further, the “potential conversions of the substrates, ENZ2 SEQ ID NO:2” value at ENZ2 SEQ ID NO:2 was “negative”. Moreover, the “potential conversions of the substrates, ENZ3 SEQ ID NO:3” value at ENZ3 SEQ ID NO:3 is on record as “negative”.
In the case of `N[C@H]1CCCCNC1=O` [L-(-)-α-Amino-ε-caprolactam], the “potential conversions … ENZ1 SEQ ID N°1” value at ENZ1 SEQ ID N°1 was “negative”. For the same molecule, at ENZ4 SEQ ID NO:4, the “potential conversions of the substrates, ENZ4 SEQ ID NO:4” value is “negative”. The “potential conversions of the substrates, ENZ2 SEQ ID NO:2” value on ENZ2 SEQ ID NO:2 is “negative”. Also, the “potential conversions of the substrates, ENZ3 SEQ ID NO:3” value at ENZ3 SEQ ID NO:3 was “negative”.
Regarding `NCCCCCC(=O)O` [6-aminohexanoic acid], the “potential conversions … ENZ1 SEQ ID N°1” value on ENZ1 SEQ ID N°1 is on record as “negative”. Moreover, the “potential conversions of the substrates, ENZ4 SEQ ID NO:4” value on ENZ4 SEQ ID NO:4 is recorded as “negative”. For the same molecule, on ENZ2 SEQ ID NO:2, the “potential conversions of the substrates, ENZ2 SEQ ID NO:2” value is “negative”. Further, the “potential conversions of the substrates, ENZ3 SEQ ID NO:3” value on ENZ3 SEQ ID NO:3 is given as “negative”.
As for `NCCC[C@H](O)[C@H](N)C(=O)O` [(3S)- hydroxy-L-lysine], the “potential conversions of the substrates, ENZ4 SEQ ID NO:4” value on ENZ4 SEQ ID NO:4 is “negative”. Also, the “potential conversions of the substrates, ENZ2 SEQ ID NO:2” value at ENZ2 SEQ ID NO:2 is recorded as “positive”. At ENZ3 SEQ ID NO:3, the “potential conversions of the substrates, ENZ3 SEQ ID NO:3” value was “positive”.
Consider `NC(=O)NCCC[C@H](N)C(=O)O` [L-citrulline], for which the “potential conversions … ENZ1 SEQ ID N°1” value on ENZ1 SEQ ID N°1 is reported as “negative”. Also, the “potential conversions of the substrates, ENZ4 SEQ ID NO:4” value on ENZ4 SEQ ID NO:4 is “negative”. Moreover, the “potential conversions of the substrates, ENZ2 SEQ ID NO:2” value on ENZ2 SEQ ID NO:2 is on record as “negative”. Further, the “potential conversions of the substrates, ENZ3 SEQ ID NO:3” value at ENZ3 SEQ ID NO:3 is “negative”.
Take `CNCCCC[C@H](N)C(=O)O` [Nε-Me-L-lysine]: the “potential conversions … ENZ1 SEQ ID N°1” value at ENZ1 SEQ ID N°1 is given as “negative”. The “potential conversions of the substrates, ENZ4 SEQ ID NO:4” value on ENZ4 SEQ ID NO:4 was “negative”. Moreover, the “potential conversions of the substrates, ENZ2 SEQ ID NO:2” value on ENZ2 SEQ ID NO:2 is “negative”. On ENZ3 SEQ ID NO:3, the “potential conversions of the substrates, ENZ3 SEQ ID NO:3” value is “negative”.
